This note sets out measurements from US11982671B2, “Identification of a T cell epitope of Prevotella copri that induces T cell responses in patients with rheumatoid arthritis” (priority 2016, dated 2024).

In assay [1] the test system is PBMC from RA patients. In words: IFN-γ/IL17 Double-Color ELISpot with GNS, FLNA and microbial peptides. It counts as cell-based, human. The settings on record: 24 NORA patients, single peptide 1 μM. The protocol: Enzyme-linked immunospot (ELISpot) T cell assay. A detailed description of the methods for isolation and identification of HLA-DR presented peptides is given in previous publications (19, 20). In the current study, all non-redundant HLA-DR-presented peptides identified from patient RA1 were synthesized (Mimotopes, Australia) and tested for reactivity in sets of 3 (1 μM of each peptide) with the patient's PBMC using IFN-γ ELISpot assays. […] For testing in larger numbers of patients and control subjects who would have a range of HLA-DR genotypes, the original peptides identified from the patient (shown in bold) and 3 additional promiscuous peptides that were predicted to bind>16 HLA-DR molecules were synthesized and HPLC-purified in the MGH Core Facility. The sequences of the GNS peptides were as follows: 47PNVVLLLTDDQDE59 (SEQ ID NO: 13), 222FEPFFMMIATPAPH235 (SEQ ID NO: 14), 451TYACVRTMSALWNLQ465 (SEQ ID NO: 15), 504NYRLMMLQSCSGPTC518 (SEQ ID NO: 16). The sequences of the FLNA peptides were as follows: 73DGLRLIALLEVLSQKK88 (SEQ ID NO: 17), 118SIKLVSIDSKAIVDG132 (SEQ ID NO: 18), 416VEVVIQDPMGQKG428 (SEQ ID NO: 19), 2446NPAEFVVNTSNAGAG2460 (SEQ ID NO: 20).
To assess microbial sequence homology with the GNS peptide 222FEPFFMMIATPAPH235 (SEQ ID NO: 21), the following microbial peptides were tested: 231KKPFFMMVAMNPPH245 (SEQ ID NO: 22), which was derived from the arylsulfatase protein of Prevotella sp. (WP_062433009.1) and 247DVPFFMMWTTPLPH261 (SEQ ID NO: 23), derived from the N-acetylgalactosamine-6-sulfatase of Parabacteroides sp. (WP_046148720.1).
To evaluate the microbial sequence homology for the FLNA peptide 2446NPAEFVVNTSNAGAG2460 (SEQ ID NO: 24), the following microbial peptides were tested: 133QGFVVKTANAGAL146 (SEQ ID NO: 25), which was derived from an uncharacterized protein of Prevotella sp. (WP_028897633.1) and 90ANFMINVSNAGAL103 (SEQ ID NO: 26), derived from an uncharacterized protein of Butyricimonas sp. (WP_065219401.1). The RA patients' PBMC were stimulated with the pool of peptides or single peptides, and analyzed for reactivity with a human IFN-γ/IL17 Double-Color ELISpot kit (Cellular Technology Limited). All peptides (1 μM) were tested in duplicate wells, as were positive (phytohemagglutinin) and negative (no antigen) control samples. After 5 days, cells were transferred to ELISpot plates coated with IFN-γ/IL17 antibodies, and incubated overnight. Images of wells were captured using ImmunoSpot series 3B analyzer, and spots were counted using ImmunoSpot software. A positive T cell response was defined as 3 standard deviations (SD) above the mean value of healthy control subjects.

The subject of assay [2] is PBMC from RA patients. Put plainly: IFN-γ/IL-17 ELISpot T cell assay with Pc-p27 peptides. It counts as cell-based, human. An excerpt:
Enzyme-linked immunospot (ELISpot) T cell assay. A detailed description of the methods for isolation and identification of HLA-DR presented peptides is given in Seward et al., 2011. In initial experiments in this study, one microbial peptide (^2KRIILILTVLLAMLGQVAY^20)(SEQ ID NO: 6) derived from a 27 kDa P. copri protein (WP_022121928.1) was identified from the PBMC of one RA patient. This P. copri peptide and 2 additional peptides from the same protein, which were predicted to be promiscuous T cell epitopes (^52DYRGYWTMRYQFDSATVS^69 (SEQ ID NO: 7), ^118EKINSLPTSSTGI^130 (SEQ ID NO: 8)), were synthesized and HPLC-purified in the Core Proteomics Laboratory at MGH. […] Cells were then transferred to Dual Color ELISpot plates coated with IFN-γ/IL17 antibodies (Cellular Technology Limited), and incubated overnight at 37° C. Images of wells were captured using ImmunoSpot series 3B analyzer, and spots were counted using ImmunoSpot software. A positive T cell response was defined as 3 standard deviations (SD) above the mean value of healthy subjects.

Assay [3] has as its system serum IgG and IgA autoantibodies. Put plainly: ELISA for serum IgG and IgA anti-GNS and anti-FLNA autoantibodies. The settings on record: for patients with IgA antibody responses >3 SD above HC: 101 RA patients; for patients with IgG antibody responses >3 SD above HC: 101 RA patients (NORA and CRA), serum diluted 50-fold; for IgG antibody responses to citrullinated versus uncitrullinated protein: 46 RA patients, protein citrullinated in vitro with rhPAD4. It counts as binding, human. As for the experimental part: ELISA for serum IgG and IgA anti-GNS and anti-FLNA autoantibodies. ELISA plates were coated with 0.5 μg/ml of recombinant human N-acetylglucosamine-6-sulfatase (Novoprotein, Summit, N.J.) or filamin A (Novusbio, Littleton, Colo.) overnight at 4° C. Subsequent incubations and washes were performed at room temperature. After washing with phosphate buffered saline with 0.05% Tween-20 (PBST), the plates were blocked with blocking buffer (5% nonfat dry milk in PBST) for one hour. Afterwards, 100 μl of each patient's serum sample (diluted 50-fold) was added in duplicate wells for 1.5 hours, followed by horseradish-peroxidase (HRP)-conjugated goat anti-human IgG (sc-2453, Santa Cruz Biotech) or HRP-conjugated goat anti-human IgA (Bio-Rad, Hercules, Calif.), and then TMB substrate (BD, San Diego, Calif.). For inter-plate standardization, 2 control samples were included with each assay.
In vitro citrullination assay. Human recombinant N-acetylglucosamine-6-sulfatase (2 μg) or filamin A (2 μg) were incubated with rhPAD-4 (400 ng), generously provided by Maximilian Koenig from the laboratory of Felipe Andrade, in 1M Tris (pH 7.6) in presence of 200 mM CaCl2. A negative control reaction was performed substituting 200 mM CaCl2 with 200 mM EDTA. Incubation was performed at 37° C. for 3 hours. Protein citrullination was determined by anti-modified citrulline immunoblotting, according to the recommendations of the manufacturer (Millipore).
On the technique in general: An ELISA detects its analyte on a solid surface through an enzyme-linked reagent.

As for “DVPFFMMWTTPLPH (Parabacteroides sp. HGS0025) [Parabacteroides peptide, peptide from N-acetylgalactosamine-6-sulfatase of Parabacteroides sp]”, the “patients with T cell reactivity >3SD above the mean values in HC” value (“patients … in HC” below) in assay [1] is 25%. With “QGFVVKTANAGAL (Prevotella sp. HUN102) [corresponding Prevotella peptide, peptide from an uncharacterized protein of Prevotella sp., homologous to the FLNA peptide]”, the “patients … in HC” value in assay [1] is recorded as 42%.

Turning to “KKPFFMMVAMNPPH (Prevotella sp. DNF00663) [Prevotella peptide, peptide from arylsulfatase protein of Prevotella sp., homologous to the GNS peptide]”, the “patients … in HC” value in assay [1] is 38%. For the molecule “KRIILILTVLLAMLGQVAY (listed as Prevotella copri) [Pc-p27 peptide 1]”, the “patients whose PBMC secreted IFN-γ >3 SD above the mean value of HC” value in assay [2] (40 RA patients (39 NORA + RA1), peptide 1 μM, 5 days) was 42%. For the same molecule, the “T cell reactivity of PBMC from Lyme arthritis patients” value in assay [2] (LA patients, peptide 1 μM) is “lacked reactivity”. Further, the “patients with IFN-γ response, peptide with or without citrullination” value in assay [2] (RA patients, FIG. 1D) came out at 44%. In addition, the “IFN-γ secreted by patient RA1 T cells relative to background” value in assay [2] (patient RA1 PBMC, peptide 1, 2 and 4 μM, background = no antigen) is over 3 times background. “FEPFFMMIATPAPH (listed as Homo sapiens) [GNS peptide, HLA-DR-presented self peptide from N-acetylglucosamine-6-sulfatase]”: the “patients … in HC” value in assay [1] came out at 33%. In the case of “ANFMINVSNAGAL (Butyricimonas sp. Marseille-P2440) [Butyricimonas peptide, peptide from an uncharacterized protein of Butyricimonas sp]”, in assay [1], the “patients … in HC” value worked out at 29%. For NPAEFVVNTSNAGAG [FLNA peptide], the “patients … in HC” value in assay [1] amounted to 38%.

B1: GNS: recombinant human N-acetylglucosamine-6-sulfatase (Novoprotein) (protein)
chain: VFGVAAGTRRPNVVLLLTDDQDEVLGGMTPLKKTKALIGEMGMTFSSAYVPSALCCPSRASILTGKYPHNHHVVNNTLEGNCSSKSWQKIQEPNTFPAILRSMCGYQTFFAGKYLNEYGAPDAGGLEHVPLGWSYWYALEKNSKYYNYTLSINGKARKHGENYSVDYLTDVLANVSLDFLDYKSNFEPFFMMIATPAPHSPWTAAPQYQKAFQNVFAPRNKNFNIHGTNKHWLIRQAKTPMTNSSIQFLDNAFRKRWQTLLSVDDLVEKLVKRLEFTGELNNTYIFYTSDNGYHTGQFSLPIDKRQLYEFDIKVPLLVRGPGIKPNQTSKMLVANIDLGPTILDIAGYDLNKTQMDGMSLLPILRGASNLTWRSDVLVEYQGEGRNVTDPTCPSLSPGVSQCFPDCVCEDAYNNTYACVRTMSALWNLQYCEFDDQEVFVEVYNLTADPDQITNIAKTIDPELLGKMNYRLMMLQSCSGPTCRTPGVFDPGYRFDPRLMFSNRGSVRTRRFSKHLL
In the case of B1, in assay [3], the “patients with IgA antibody responses >3 SD above HC” value is recorded as 16% and the “patients with IgG antibody responses >3 SD above HC” value is 32%. For the same molecule, the “positive IgG antibody responses in patients with other diseases and healthy controls” value in assay [3] (106 patients with LA, SpA or CTD, 50 healthy control subjects) is reported as “none”.

B2: citrullinated GNS: recombinant GNS citrullinated in vitro with rhPAD-4 (protein)
chain: VFGVAAGTRRPNVVLLLTDDQDEVLGGMTPLKKTKALIGEMGMTFSSAYVPSALCCPSRASILTGKYPHNHHVVNNTLEGNCSSKSWQKIQEPNTFPAILRSMCGYQTFFAGKYLNEYGAPDAGGLEHVPLGWSYWYALEKNSKYYNYTLSINGKARKHGENYSVDYLTDVLANVSLDFLDYKSNFEPFFMMIATPAPHSPWTAAPQYQKAFQNVFAPRNKNFNIHGTNKHWLIRQAKTPMTNSSIQFLDNAFRKRWQTLLSVDDLVEKLVKRLEFTGELNNTYIFYTSDNGYHTGQFSLPIDKRQLYEFDIKVPLLVRGPGIKPNQTSKMLVANIDLGPTILDIAGYDLNKTQMDGMSLLPILRGASNLTWRSDVLVEYQGEGRNVTDPTCPSLSPGVSQCFPDCVCEDAYNNTYACVRTMSALWNLQYCEFDDQEVFVEVYNLTADPDQITNIAKTIDPELLGKMNYRLMMLQSCSGPTCRTPGVFDPGYRFDPRLMFSNRGSVRTRRFSKHLL
As for B2, the “IgG antibody responses to citrullinated versus uncitrullinated protein” value in assay [3] is recorded as “higher”.

B3: FLNA: recombinant human filamin A (Novusbio) (protein)
chain: GAPGPGPADASKVVAKGLGLSKAYVGQKSSFTVDCSKAGNNMLLVGVHGPRTPCEEILVKHVGSRLYSVSYLLKDKGEYTLVVKWGDEHIPGSPYRVVVP
Regarding B3, in assay [3], the “patients with IgA antibody responses >3 SD above HC” value was determined as 15% and the “patients with IgG antibody responses >3 SD above HC” value came out at 27%.

B4: citrullinated FLNA: recombinant filamin A citrullinated in vitro with rhPAD-4 (protein)
chain: GAPGPGPADASKVVAKGLGLSKAYVGQKSSFTVDCSKAGNNMLLVGVHGPRTPCEEILVKHVGSRLYSVSYLLKDKGEYTLVVKWGDEHIPGSPYRVVVP
In the case of B4, the “IgG antibody responses to citrullinated versus uncitrullinated protein” value in assay [3] is listed as “not significantly different”.
